The source of these data is patent US20180209966A1, “FLUORESCENCE POLARIZATION IMMUNOASSAY METHOD FOR DETECTING CARBARYL” (priority 2017, published 2018).

What all share (type): binding, BALB/c mice
Experiment [1] deals with anti-carbaryl monoclonal antibody secreted by the hybridoma cell line Jnw1D2. As to the kind of experiment: indirect competitive ELISA characterisation of the anti-carbaryl monoclonal antibody (IC50, cross reaction). The conditions noted are these: with anti-carbaryl monoclonal antibody. The text has this:
2-3 weeks after cell fusion, when the cell colonies grew up to be visually visible, the clones were picked out from the culture medium with a micropipette, transferred to a 96-well cell culture plate and cultured in HAT liquid. When the cells grew to cover ⅔ of the bottom of the well, the culture supernatant was aspirated for testing. A two-step screening method was adopted. In the first step, indirect ELISA method was used to screen out the positive wells against carbaryl, but not the carrier protein BSA. In the second step, indirect competitive ELISA method was used for testing the positive wells screened out in the first step with carbaryl as a competitor. Wells with high absorbance and sensitivity were chosen (where the high absorbance means a high final value determined in the well where the competitor is 0, i.e., the positive control well, and the high sensitivity means a low concentration, i.e. the IC50, of the competitor achieving 50% inhibition). The cells were subcloned by limiting dilution analysis, and then detected by the two-step method as described above. After 4-5 rounds of repeated subcloning, a hybridoma cell line Jnw1D2 was obtained, which was deposited in China Center for Type Culture Collection (CCTCC) (Wuhan University, Wuhan, China) under the CCTCC Accession No: C201654.
The subtype of the anti-carbaryl monoclonal antibody secreted by the hybridoma cell line Jnw1D2 was identified as IgG2b by using a commercial subtype identification kit. The titer of the antibody was 1.6×10^4 measured by enzyme-linked immunosorbent assay (ELISA).
In general terms: In an ELISA, binding on a coated surface is turned into a signal by an enzyme label.

The test system of experiment [2] is anti-carbaryl monoclonal antibody. Briefly: competitive FPIA carbaryl standard curve in strawberry sample matrix. As to conditions: 25° C., 5 min. On the procedure: Step 1: 20.0 g of the blank strawberry sample (which was determined to be carbaryl free by LC) was weighed and added to 20.0 mL acetonitrile, homogenized for 2 min at a high speed, filtered into a 50 mL centrifuge tube containing 4 g of sodium chloride, shaken vigorously for 3 min, and centrifuged at 5000 g for 2 min. 10 mL of the supernatant extract was aspirated to a beaker, heated in a water bath at 80° C., and evaporated to almost dryness while nitrogen was introduced into the beaker. 10 mL of methanol was added to dissolve the sample residue, to obtain a sample matrix solution. 9 concentration gradients of carbaryl standards of 100 μg/mL, 10 μg/mL, 1μg/mL, 0.5 μg/mL, 0.1 μg/mL, 0.05 μg/mL, 0.01 μg/mL, 0.005 μg/mL and 0.001 μg/mL were formulated with the sample matrix solution. Each 50 μL of the carbaryl standard solution in the sample matrix solution, 500 μL fluorescent marker solution and 500 μL anti-carbaryl monoclonal antibody solution were added and incubated at 25° C. for 5 min. Then FPIA detection was conducted. According to the correlation between the fluorescence polarization signal and the concentration of the carbaryl standard, a standard curve for carbaryl detection in the strawberry sample was obtained, as shown in FIG. 2. The detection sensitivity of carbaryl in the strawberry matrix is 108.6 μg/kg and the detection range is 32.4-363.6 μg/kg. […]

For experiment [3] the test system is unchanged. As to the kind of experiment: competitive FPIA carbaryl standard curve in borate buffer solution. The conditions noted are these: 10% methanol, 10 min. As to the method:
Step 2: First, the working concentration of each fluorescent marker was set to a corresponding fluorescent marker concentration (5 nM) when the fluorescence intensity was 10 times of the background fluorescence intensity of the BB solution (borate buffer solution). With a corresponding antibody dilution factor when 70% of the anti-carbaryl monoclonal antibody binds to the fluorescent marker (1 μg/mL), the carbaryl detection standard curve of different markers was established and the IC50 was calculated. The optimum fluorescent marker was decided based on the IC50 value of each standard curve. […]
9 concentration gradients of carbaryl standards of 100 μg/mL, 10 μg/mL, 1 μg/mL, 0.5 μg/mL, 0.1 μg/mL, 0.05 μg/mL, 0.01 μg/mL, 0.005 μg/mL and 0.001 μg/mL were formulated with 10% methanol in a borate buffer solution, and each 50 μL of the carbaryl standards, 500 μL fluorescent marker of working concentration (5 nM), and 500 μL anti-carbaryl monoclonal antibody of the working concentration (1 μg/mL) were added to a reaction tube, and incubated at room temperature in the dark for 10 min. Then the fluorescence polarization value was measured at an excitation wavelength of 485 nm and an emission wavelength of 530 nm, with a cutoff of 515 nm. […]

In the case of `CNC(=O)O/N=C/C(C)(C)SC` [aldicarb], in experiment [1], the cross reaction entry is given as “no cross reaction”.
With `CNC(=O)Oc1cccc2ccccc12` [carbaryl], the detection sensitivity in experiment [2] came out at 108.6 µg/kg. Besides, the “sensitivity of the standard curve” value in experiment [3] is reported as 82.3 ng/mL.
For the compound `CNC(=O)Oc1cccc2c1OC(C)(C)C2` [carbofuran], in experiment [1], the cross reaction entry is “no cross reaction”.
Still for that read-out and setting: next, `CNC(=O)ON=C(C)SC` [methomyl]: “no cross reaction”.
